Results from the Kinase Knowledgebase extract (Sharma et al. 2016).

Molecular target: PIK3CG (human) (UniProt P48736)
Assay: Inhibition of PIK3CG Kinase Activity

Chain of PIK3CG (human) (P48736 whole entry, looked up): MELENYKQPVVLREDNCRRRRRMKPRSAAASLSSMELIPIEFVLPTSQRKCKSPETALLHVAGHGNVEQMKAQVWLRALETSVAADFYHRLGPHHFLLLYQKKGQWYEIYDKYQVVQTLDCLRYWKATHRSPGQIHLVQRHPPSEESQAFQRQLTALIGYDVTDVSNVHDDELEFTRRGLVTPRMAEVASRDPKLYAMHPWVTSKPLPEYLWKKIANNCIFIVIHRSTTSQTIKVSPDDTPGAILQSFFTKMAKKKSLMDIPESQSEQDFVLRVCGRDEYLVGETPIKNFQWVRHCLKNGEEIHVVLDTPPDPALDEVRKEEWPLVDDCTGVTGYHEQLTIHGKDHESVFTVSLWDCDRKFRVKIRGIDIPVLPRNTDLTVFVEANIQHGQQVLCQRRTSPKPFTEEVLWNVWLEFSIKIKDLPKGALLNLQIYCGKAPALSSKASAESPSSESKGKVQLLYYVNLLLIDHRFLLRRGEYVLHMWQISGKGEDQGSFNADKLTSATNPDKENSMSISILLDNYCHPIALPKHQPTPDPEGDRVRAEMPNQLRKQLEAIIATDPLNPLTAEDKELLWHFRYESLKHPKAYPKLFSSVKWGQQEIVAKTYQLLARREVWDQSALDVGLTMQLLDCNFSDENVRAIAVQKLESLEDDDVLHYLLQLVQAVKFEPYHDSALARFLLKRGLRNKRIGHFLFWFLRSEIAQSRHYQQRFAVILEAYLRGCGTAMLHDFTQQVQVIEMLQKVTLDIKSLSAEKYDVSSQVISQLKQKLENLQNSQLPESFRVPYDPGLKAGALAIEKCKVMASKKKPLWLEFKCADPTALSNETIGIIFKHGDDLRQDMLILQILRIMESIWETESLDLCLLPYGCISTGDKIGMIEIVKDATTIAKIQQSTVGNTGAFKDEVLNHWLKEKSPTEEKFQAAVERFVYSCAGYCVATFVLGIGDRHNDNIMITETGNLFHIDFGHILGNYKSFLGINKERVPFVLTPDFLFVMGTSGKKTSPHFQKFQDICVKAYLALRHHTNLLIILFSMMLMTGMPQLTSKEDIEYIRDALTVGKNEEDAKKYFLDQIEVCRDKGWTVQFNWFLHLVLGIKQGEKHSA

Q: For COc1cc(-c2ccc3c(c2)CN(c2cnn(CC4CCCO4)c2)C3=O)cnc1OC (configuration not stated), which Ki is on record?
A: 100 to 490 nM

Q: Which Ki does the source give for COc1cc(-c2ccc3c(n2)CN(c2cnn(CCn4ccc(C)n4)c2)C3=O)cnc1OC here?
A: 100 to 490 nM

Q: For COCCOC1c2nc(-c3cnc(OC)c(OC)c3)ccc2C(=O)N1c1cnn(CC(F)(F)F)c1 (configuration not stated), which Ki is on record?
A: < 100 nM

Q: For COc1cc(-c2ccc3c(c2)CN(c2cccc(Cn4cncn4)c2)C3=O)cnc1OC, which Ki is on record?
A: < 100 nM

Q: COCCNC(=O)c1cc(-c2cc(C)c3c(n2)C(C)(C)N(c2cnn(CC(F)(F)F)c2)C3=O)cnc1OC was tested. Which Ki did it give?
A: < 100 nM

Q: COc1cncc(-c2cc(C)c3c(n2)[C@]2(CCCO2)N(c2cnn(CC(F)(F)F)c2)C3=O)c1 was tested. Which Ki did it give?
A: 100 to 490 nM

Q: With CCOc1cncc(-c2cc(C)c3c(n2)C(C)(OC)N(c2cnn(CC(F)(F)F)c2)C3=O)c1 (configuration not stated) as the molecule, how does the Ki read?
A: < 100 nM

Q: Which Ki does the source give for COc1cc(-c2cc(C)c3c(n2)CN(c2ncccn2)C3=O)cnc1OC here?
A: 100 to 490 nM

Q: For COc1cc(-c2ccc3c(n2)CN(c2cnn(CC4CCN(C(=O)OC(C)(C)C)CC4)c2)C3=O)cnc1OC, which Ki is on record?
A: 100 to 490 nM

Q: For COc1cc(-c2ccc3c(c2)CN(c2cc(C)ns2)C3=O)cnc1OC, which Ki is on record?
A: 100 to 490 nM

Q: How did the Ki turn out when COc1cc(-c2ccc3c(c2)CN(c2cc(C4CC4)[nH]n2)C3=O)cnc1OC was run?
A: < 100 nM

Q: With CCO[C@@]1(C)c2nc(-c3cnc(OC)c(OC)c3)cc(C)c2C(=O)N1c1cnn(CC(F)(F)F)c1 as the molecule, how does the Ki read?
A: < 100 nM

Q: With COc1ncc(-c2cc(C)c3c(n2)C(C)(C)N(c2cnn(CC(F)(F)F)c2)C3=O)cc1C(=O)NC(C)(C)C as the molecule, how does the Ki read?
A: < 100 nM

Q: Which Ki does the source give for CCOc1ncc(-c2cc(C)c3c(n2)C(O)N(c2cnn(CC(F)(F)F)c2)C3=O)cc1OC (configuration not stated) here?
A: < 100 nM

Q: COc1cncc(-c2cc(C)c3c(n2)C2(CNC2)N(c2cnn(CC(F)(F)F)c2)C3=O)c1 was tested. Which Ki did it give?
A: < 100 nM

Q: Which Ki does the source give for Cc1cc(-c2cncc(S(C)(=O)=O)c2)nc2c1C(=O)N(c1cnn(CC(F)(F)F)c1)[C@H]2C here?
A: < 100 nM

Q: With COc1ncc(-c2cc(C)c3c(n2)C(C)(C)N(c2cnn(CC(F)(F)F)c2)C3=O)cc1C(=O)N[C@H]1CCOC1 as the molecule, how does the Ki read?
A: < 100 nM

Q: For Cc1cc(-c2cncc(OC3CC3)c2)nc2c1C(=O)N(c1cnn(CC(F)(F)F)c1)C2(C)C, which Ki is on record?
A: < 100 nM

Q: With COc1cncc(-c2cc(C)c3c(n2)C2(CCC2)N(c2cnn(CC(F)(F)F)c2)C3=O)c1 as the molecule, how does the Ki read?
A: < 100 nM

Q: Cc1cc(-c2cncc(OC(F)F)c2)nc2c1C(=O)N(c1cnn(CC(F)(F)F)c1)C21CC1 was tested. Which Ki did it give?
A: < 100 nM

Q: COCCOCCOc1ncc(-c2cc(C)c3c(n2)CN(c2cnn(C)c2)C3=O)cc1OC was tested. Which Ki did it give?
A: 100 to 490 nM

Q: How did the Ki turn out when COc1cc(-c2cc(C)c3c(n2)C(O)(OC)N(c2cnn(CC(F)(F)F)c2)C3=O)cnc1OC (configuration not stated) was run?
A: < 100 nM

Q: Which Ki does the source give for COc1ncc(-c2cc(C)c3c(n2)CN(c2ccn(C4COC4)n2)C3=O)cc1OCC(F)(F)F here?
A: < 100 nM

Q: With COc1cc(-c2ccc3c(n2)[C@H](N2CCOCC2)N(c2cnn(CC(F)(F)F)c2)C3=O)cnc1OC as the molecule, how does the Ki read?
A: < 100 nM

Q: COc1cc(-c2ccc3c(n2)CN(c2cnn(Cc4ccn(C)n4)c2)C3=O)cnc1OC was tested. Which Ki did it give?
A: < 100 nM

Q: With COc1cc(-c2ccc3c(c2)CN(c2ncc(C)s2)C3=O)cnc1OC as the molecule, how does the Ki read?
A: 100 to 490 nM

Q: Which Ki does the source give for COc1cc(-c2ccc3c(n2)[C@H](C)N(c2ccnc(CC#N)c2)C3=O)cnc1OC here?
A: < 100 nM

Q: COc1cc(-c2ccc3c(n2)CN(c2cnn(C(F)(F)C#N)c2)C3=O)cnc1OC was tested. Which Ki did it give?
A: < 100 nM

Q: Which Ki does the source give for CCOc1ncc(-c2cc(C)c3c(n2)C(OC)N(c2cnn(CC(F)(F)F)c2)C3=O)cc1OC (configuration not stated) here?
A: < 100 nM

Q: With C#CCNC(=O)c1cc(-c2cc(C)c3c(n2)C(C)(C)N(c2cnn(CC(F)(F)F)c2)C3=O)cnc1OC as the molecule, how does the Ki read?
A: < 100 nM

Q: Cc1cc(-c2cncc(C(=O)O)c2)nc2c1C(=O)N(c1cnn(CC(F)(F)F)c1)C2 was tested. Which Ki did it give?
A: < 100 nM

Q: For COc1ccc(-c2cc(C)c3c(c2)CN(c2cnn(CC#N)c2)C3=O)cc1OC, which Ki is on record?
A: < 100 nM

Q: For COc1cc(-c2cc(C)c3c(n2)CN(c2ccn(C(F)F)c(=O)c2)C3=O)cnc1OC, which Ki is on record?
A: < 100 nM

Q: How did the Ki turn out when Cc1cc(-c2cncc(OC(F)F)c2)nc2c1C(=O)N(c1cnn(C(C)(C)C#N)c1)C2 was run?
A: < 100 nM

Q: Which Ki does the source give for CCn1cc(N2C(=O)c3ccc(-c4cnc(OC)c(OC)c4)nc3C2C)cn1 (configuration not stated) here?
A: < 100 nM

Q: With CCc1cc(-c2cnc(OC)c(OC)c2)nc2c1C(=O)N(c1cn[nH]c1)C2(C)C as the molecule, how does the Ki read?
A: < 100 nM

Q: With COc1cc(-c2cc(C)c3c(c2)CN(c2cnn([C@@H](CO)C(F)(F)F)c2)C3=O)cnc1OC as the molecule, how does the Ki read?
A: < 100 nM

Q: Which Ki does the source give for COc1cncc(-c2cc(C)c3c(n2)C2(COC2)N(c2cnn(CC(F)(F)F)c2)C3=O)c1 here?
A: < 100 nM

Q: For COc1cc(-c2ccc3c(n2)[C@@H](C)N(c2ccnc(CC#N)c2)C3=O)cnc1OC, which Ki is on record?
A: < 100 nM

Q: For COc1cncc(-c2cc(C)c3c(n2)[C@]2(CCOC2)N(c2cnn(CC(F)(F)F)c2)C3=O)c1, which Ki is on record?
A: < 100 nM

Q: Which Ki does the source give for COc1cc(-c2cc(C)c3c(n2)C(OC(C)C)N(c2cnn(CC(F)(F)F)c2)C3=O)cnc1OC (configuration not stated) here?
A: < 100 nM

Q: How did the Ki turn out when COCCn1cc(N2Cc3cc(-c4cnc(OC)c(OC)c4)ccc3C2=O)cn1 was run?
A: 100 to 490 nM

Q: COc1cc(-c2cc(C)c3c(n2)C(C)N(c2cnn(C[C@H](C)O)c2)C3=O)cnc1OC (some centres not stated) was tested. Which Ki did it give?
A: < 100 nM

Q: CCOC(=O)c1cncc(N2Cc3nc(-c4cnc(OC)c(OC)c4)ccc3C2=O)c1 was tested. Which Ki did it give?
A: 100 to 490 nM

Q: With CCOc1ncc(-c2cc(C)c3c(n2)CN(c2cn(CC(F)(F)F)cn2)C3=O)cc1OC as the molecule, how does the Ki read?
A: < 100 nM

Q: COc1cc(-c2ccc3c(n2)CN(c2ccc(N4CCC(CO)C4)nc2)C3=O)cnc1OC (configuration not stated) was tested. Which Ki did it give?
A: 100 to 490 nM

Q: For Cc1cc(-c2cncc(OC(F)F)c2)nc2c1C(=O)N(c1cnn(CC(F)(F)F)c1)C2C (configuration not stated), which Ki is on record?
A: < 100 nM

Q: With COc1ccc(-c2cc(C)c3c(c2)C(C)N(c2cnn(CC(F)(F)F)c2)C3=O)cc1OC (configuration not stated) as the molecule, how does the Ki read?
A: < 100 nM

Q: How did the Ki turn out when CCC1(OC)c2nc(-c3cnc(OC)c(OC)c3)cc(C)c2C(=O)N1c1cnn(CC(F)(F)F)c1 (configuration not stated) was run?
A: < 100 nM

Q: How did the Ki turn out when COc1cncc(-c2cc(C)c3c(n2)CN(c2cnn(C(C)(C)C#N)c2)C3=O)c1 was run?
A: < 100 nM

Q: For COc1cc(-c2ccc3c(c2)CN(c2cnn(CC4COc5ccccc5O4)c2)C3=O)cnc1OC (configuration not stated), which Ki is on record?
A: 100 to 490 nM

Q: For COc1cncc(-c2cc(C)c3c(n2)[C@H](C)N(c2cn[nH]c2)C3=O)c1, which Ki is on record?
A: < 100 nM

Q: How did the Ki turn out when Cc1ccc(-c2cc(C)c3c(n2)CN(c2cnn(CC#N)c2)C3=O)cn1 was run?
A: < 100 nM

Q: For CNC(=O)c1cncc(-c2cc(C)c3c(n2)C(C)(C)N(c2cnn(CC(F)(F)F)c2)C3=O)c1, which Ki is on record?
A: < 100 nM

Q: COc1cc(-c2ccc3c(c2)CN(c2cccc(C#N)c2)C3=O)cnc1OC was tested. Which Ki did it give?
A: 100 to 490 nM

Q: How did the Ki turn out when COc1cncc(-c2cc(C)c3c(n2)C2(CC(O)C2)N(c2cnn(CC(F)(F)F)c2)C3=O)c1 (configuration not stated) was run?
A: < 100 nM

Q: How did the Ki turn out when CCNC(=O)c1cc(-c2cc(C)c3c(n2)C2(CCOC2)N(c2cnn(CC(F)(F)F)c2)C3=O)cnc1OC (configuration not stated) was run?
A: < 100 nM

Q: For COc1cncc(-c2cc(C)c3c(n2)C(C)(C)N(c2ccn(C[C@H](C)O)n2)C3=O)c1, which Ki is on record?
A: < 100 nM

Q: Which Ki does the source give for COc1cc(-c2cc(C)c3c(n2)CN(c2cncc(F)c2)C3=O)cnc1OC here?
A: < 100 nM

Q: With COc1cc(-c2cc(C)c3c(n2)CN(c2cncc(OCCO)c2)C3=O)cnc1OC as the molecule, how does the Ki read?
A: < 100 nM

Q: For COc1cc(-c2ccc3c(n2)CN(c2ccc(OCC4OCCO4)nc2)C3=O)cnc1OC, which Ki is on record?
A: < 100 nM

Q: Which Ki does the source give for CC#CCn1cc(N2Cc3cc(-c4cnc(OC)c(OC)c4)ccc3C2=O)cn1 here?
A: 100 to 490 nM

Q: With COc1ncc(-c2ccc3c(n2)[C@@H](C)N(c2cnn(CC(F)(F)F)c2)C3=O)cc1O as the molecule, how does the Ki read?
A: < 100 nM

Q: For COc1ncc(-c2ccc3c(n2)CN(c2cnn(C(C)(C)C#N)c2)C3=O)cc1OC(F)F, which Ki is on record?
A: < 100 nM

Q: With COCCn1cc(N2Cc3nc(-c4cnc(OC)c(OC)c4)ccc3C2=O)cn1 as the molecule, how does the Ki read?
A: < 100 nM

Q: Which Ki does the source give for COc1cc(-c2ccc3c(n2)C(N2CC[C@@H](F)C2)N(c2cnn(CC(F)(F)F)c2)C3=O)cnc1OC (some centres not stated) here?
A: < 100 nM

Q: With Cc1cc(-c2cc(OC(F)(F)F)ccc2Cl)nc2c1C(=O)N(c1cnn(CC(F)(F)F)c1)C2 as the molecule, how does the Ki read?
A: 100 to 490 nM
